Results reported in ChEMBL document CHEMBL1201862, “PubChem BioAssay data set” (2004).
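The compound was tested at five concentrations on cells cultured in 96-well plates, with a 48-hour exposure period. Here, GI50 denotes the concentration required for 50% inhibition of growth.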 Active and inactive are the calls of the source. No stated cut-off is given here; in the data, active = GI50 up to about 1.1 µM and inactive = higher.

Columns and labels:
Test in all cases: NCI-60 cell line screen, 48 h
[1] = tested on: RXF 393
[2] = tested on: MCF7
[3] = tested on: COLO 205
[4] = tested on: OVCAR-5
[5] = tested on: NCI-H226
[6] = tested on: ACHN
[7] = tested on: UACC-62
[8] = tested on: TK-10
[9] = tested on: NCI/ADR-RES
[10] = tested on: OVCAR-8
[11] = tested on: SF-539
[12] = tested on: SK-MEL-5
[13] = tested on: NCI-H522
[14] = tested on: NCI-H460
[15] = tested on: HT-29
[16] = tested on: PC-3
[17] = tested on: DU-145
[18] = tested on: MDA-N
[19] = tested on: SF-268
[20] = tested on: UACC-257

Row | Structure (SMILES) | GI50 [1] | GI50 [2] | GI50 [3] | GI50 [4] | GI50 [5] | GI50 [6] | GI50 [7] | GI50 [8] | GI50 [9] | GI50 [10] | GI50 [11] | GI50 [12] | GI50 [13] | GI50 [14] | GI50 [15] | GI50 [16] | GI50 [17] | GI50 [18] | GI50 [19] | GI50 [20]
1 | CCc1nc(N)nc(N)c1-c1ccc(NCCN)c([N+](=O)[O-])c1 | 39 µM (inactive) | 10.2 µM (inactive) | 14.2 µM (inactive) | 33.9 µM (inactive) | > 96.8 µM (inactive) | 34.9 µM (inactive) | 6.3 µM (inactive) | > 88.7 µM (inactive) | > 100 µM (inactive) | 7.67 µM (inactive) | 11.6 µM (inactive) | 9.79 µM (inactive) | 13.7 µM (inactive) | 2.75 µM (inactive) | 6.11 µM (inactive) | 6.53 µM (inactive) | 20.5 µM (inactive) | 6.92 µM (inactive) | 7.1 µM (inactive) | 14.3 µM (inactive)
2 | Nc1c(/C=C/c2cc3cc(C4=NCCN4)ccc3o2)[nH]c2cc(C3=NCCN3)ccc12 | 43 µM (inactive) | 40.7 µM (inactive) | 41.3 µM (inactive) | > 100 µM (inactive) | > 100 µM (inactive) | 47.1 µM (inactive) | 38 µM (inactive) | 31.6 µM (inactive) | 76.2 µM (inactive) | 38.9 µM (inactive) | 40 µM (inactive) | 30.8 µM (inactive) | 45.9 µM (inactive) | 32.7 µM (inactive) | 34.3 µM (inactive) | 34.6 µM (inactive) | 36.1 µM (inactive) | 37.8 µM (inactive) | 46.7 µM (inactive) | 46.7 µM (inactive)
3 | C[C@]12CC/C(=N\O)C=C1CC[C@@H]1[C@@H]2CC[C@]2(C)C(=N/O)/C(=C/c3ccncc3)C[C@@H]12 | 24.3 µM (inactive) | 16.3 µM (inactive) | 15.9 µM (inactive) | 42.8 µM (inactive) | 6.37 µM (inactive) | 18.7 µM (inactive) | 16.4 µM (inactive) | 36.1 µM (inactive) | 21.2 µM (inactive) | 24.6 µM (inactive) | 31.8 µM (inactive) | 7 µM (inactive) | 27.2 µM (inactive) | 14.6 µM (inactive) | 11.5 µM (inactive) | 14 µM (inactive) | 31.6 µM (inactive) | 21.7 µM (inactive) | 28.7 µM (inactive) | 28.4 µM (inactive)
4 | O=c1[nH]c(=O)n(C2C(CO)OC(CO)C2O)cc1F (stereo not given) | > 100 µM (inactive) | > 100 µM (inactive) | > 100 µM (inactive) | > 100 µM (inactive) | > 100 µM (inactive) | > 100 µM (inactive) | > 100 µM (inactive) | > 100 µM (inactive) | > 100 µM (inactive) | > 100 µM (inactive) | > 100 µM (inactive) | > 100 µM (inactive) | > 100 µM (inactive) | > 100 µM (inactive) | > 100 µM (inactive) | > 100 µM (inactive) | > 100 µM (inactive) | > 100 µM (inactive) | > 100 µM (inactive) | > 100 µM (inactive)
5 | O=C1C2CC[C@@H]3C(=O)C(Cl)(Cl)[C@@H]3CCC2C1(Cl)Cl (stereo not given in full) | > 87.7 µM (inactive) | 42.8 µM (inactive) | 71 µM (inactive) | > 100 µM (inactive) | > 100 µM (inactive) | > 100 µM (inactive) | > 86.9 µM (inactive) | > 100 µM (inactive) | > 100 µM (inactive) | > 100 µM (inactive) | > 44.4 µM (inactive) | > 100 µM (inactive) | > 58.7 µM (inactive) | > 100 µM (inactive) | > 100 µM (inactive) | > 100 µM (inactive) | > 100 µM (inactive) | > 72.4 µM (inactive) | > 100 µM (inactive) | > 100 µM (inactive)
6 | O=C1C=C(c2c(O)ccc3ccccc23)c2ccccc2C1=O | 2.06 µM (inactive) | < 0.01 µM (active) | 6.76 µM (inactive) | 10.7 µM (inactive) | 9.77 µM (inactive) | 3.44 µM (inactive) | 2.35 µM (inactive) | 12.1 µM (inactive) | 3.15 µM (inactive) | 1.89 µM (inactive) | 2.09 µM (inactive) | 2.51 µM (inactive) | 1.61 µM (inactive) | 6.32 µM (inactive) | 6.97 µM (inactive) | 2.12 µM (inactive) | 10.9 µM (inactive) | 2 µM (inactive) | 6.12 µM (inactive) | 2.39 µM (inactive)
7 | Nc1ncc2c(n1)-c1ccccc1OC2NC1CC1 (stereo not given) | > 100 µM (inactive) | > 100 µM (inactive) | > 100 µM (inactive) | > 100 µM (inactive) | > 100 µM (inactive) | > 100 µM (inactive) | > 100 µM (inactive) | > 100 µM (inactive) | > 100 µM (inactive) | > 100 µM (inactive) | > 100 µM (inactive) | > 100 µM (inactive) | > 100 µM (inactive) | > 100 µM (inactive) | > 100 µM (inactive) | > 100 µM (inactive) | > 100 µM (inactive) | > 100 µM (inactive) | > 100 µM (inactive) | > 100 µM (inactive)
